The record followed here is ChEMBL document CHEMBL1671783, “3-Thiomorpholin-8-oxo-8H-acenaphtho[1,2-b]pyrrole-9-carbonitrile (S1) based molecules as potent, dual inhibitors of B-cell lymphoma 2 (Bcl-2) and myeloid cell leukemia sequence 1 (Mcl-1): structure-based design and structure-activity relationship studies” (J Med Chem, 2011).

One may read the Ki as the dissociation constant of the complex between target and ligand, obtained from inhibition or displacement. High values mean a looser hold on the target, low ones a stronger hold on the target. What is called IC50 is the concentration at which inhibition is half-maximal.

Structures are written as SMILES. Active and inactive are the calls of the source. The rule behind the calls is not given here.

In assay [1] the target is T1, Induced myeloid leukemia cell differentiation protein Mcl-1 (Homo sapiens, UniProt Q07820). The assay is described as follows: Displacement of FAM-Bid from human Mcl-1 after 30 mins by fluorescence polarization assay.
T1 sequence (Q07820 whole entry): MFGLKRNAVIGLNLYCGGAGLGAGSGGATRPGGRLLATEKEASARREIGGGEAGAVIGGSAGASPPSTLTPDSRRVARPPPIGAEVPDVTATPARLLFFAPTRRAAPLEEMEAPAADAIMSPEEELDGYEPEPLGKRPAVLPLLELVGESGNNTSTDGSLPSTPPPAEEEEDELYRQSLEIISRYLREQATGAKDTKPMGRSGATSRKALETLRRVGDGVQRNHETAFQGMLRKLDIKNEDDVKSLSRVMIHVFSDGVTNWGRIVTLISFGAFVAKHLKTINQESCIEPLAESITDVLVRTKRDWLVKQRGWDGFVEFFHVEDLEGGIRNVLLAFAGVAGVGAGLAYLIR
In assay [2] the test system is SMMC-7721. The assay is described as follows: Cytotoxicity against human SMMC7721 cells after 24 hrs by MTT assay. The class given is functional, cell-based. Particulars: SMMC-7721, 24 h. On the technique in general: Formazan colour is commonly taken as a measure of viable cells.
For a further assay, the system named is MCF7. The assay is described as follows: Cytotoxicity against human MCF7 cells after 24 hrs by MTT assay. The class given is functional, cell-based. The note with it: MCF7, 24 h.
The test system of the next assay is HEK293. The assay is described as follows: Cytotoxicity against human HEK293 cells after 24 hrs by MTT assay. The assay is classed as cell-based. The note with it: HEK293, 24 h.
The target in assay [3] is T2, MCL1-BAK1 complex (Homo sapiens) (UniProt Q07820+Q16611). The assay is described as follows: Inhibition of Mcl-1/Bak interaction in human SMMC7721 cells at 10 uM after 3 hrs by Western blotting. The class given is cell-based. The note with it: SMMC-7721.
The target of assay [4] is T2, MCL1-BAK1 complex (Homo sapiens). The assay is described as follows: Inhibition of Mcl-1/Bak interaction in human MCF7 cells at 10 uM after 3 hrs by Western blotting. The class given is cell-based. Background: A western blot detects proteins with antibodies after separation by electrophoresis.
In assay [5] the test system is SMMC-7721. The assay is described as follows: Cytotoxicity against human SMMC7721 cells expressing high level of Mcl-1 after 24 hrs by MTT assay. The assay is classed as functional, cell-based. Particulars: SMMC-7721, 24 h.
The target of assay [6] is T1, Induced myeloid leukemia cell differentiation protein Mcl-1. Description: Binding affinity to Mcl-1.
The target of assay [7] is T3, Apoptosis regulator Bcl-2 (Homo sapiens, UniProt P10415). The assay is described as follows: Displacement of FAM-Bid from human Bcl-2 after 30 mins by fluorescence polarization assay. Background: Fluorescence polarisation rises when a labelled molecule tumbles more slowly, as on binding a larger partner.
T3 sequence (P10415 whole entry): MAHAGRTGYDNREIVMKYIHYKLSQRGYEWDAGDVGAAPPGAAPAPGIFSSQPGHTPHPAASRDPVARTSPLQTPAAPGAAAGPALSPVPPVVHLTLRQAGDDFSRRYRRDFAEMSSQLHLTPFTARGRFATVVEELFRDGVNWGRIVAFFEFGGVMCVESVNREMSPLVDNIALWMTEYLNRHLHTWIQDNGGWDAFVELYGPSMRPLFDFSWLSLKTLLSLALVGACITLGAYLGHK
Assay [8] addresses T3, Apoptosis regulator Bcl-2. Description: Binding affinity to Bcl-2.
Assay [9] deals with T4, Apoptosis regulator BAX/Induced myeloid leukemia cell differentiation protein Mcl-1 (Homo sapiens) (UniProt Q07820+Q07812). The assay is described as follows: Inhibition of Mcl-1/Bax interaction in human MCF7 cells at 10 uM after 3 hrs by Western blotting. The class given is cell-based.
T4 sequence (Q07812 whole entry, looked up): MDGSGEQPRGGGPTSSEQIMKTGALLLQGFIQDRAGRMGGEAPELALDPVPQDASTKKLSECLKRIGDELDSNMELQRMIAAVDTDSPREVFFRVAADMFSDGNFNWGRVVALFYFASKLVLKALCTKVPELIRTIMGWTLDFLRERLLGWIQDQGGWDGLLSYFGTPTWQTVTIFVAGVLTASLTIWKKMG
T4 sequence (Q07820 whole entry, looked up): as the sequence (Q07820 whole entry) above
In assay [10] the target is T1, Induced myeloid leukemia cell differentiation protein Mcl-1. The assay is described as follows: Displacement of FAM-Bid from human Mcl-1 after 30 mins by ELISA.
For assay [11], the target named is T3, Apoptosis regulator Bcl-2. The assay is described as follows: Displacement of FAM-Bid from human recombinant Bcl-2 after 30 mins by ELISA.
The target of assay [12] is T4, Apoptosis regulator BAX/Induced myeloid leukemia cell differentiation protein Mcl-1 (Homo sapiens). The assay is described as follows: Inhibition of Mcl-1/Bax interaction in human SMMC7721 cells at 10 uM after 3 hrs by Western blotting. Particulars: SMMC-7721. The assay is classed as cell-based.
Assay [13] has as its target T2, MCL1-BAK1 complex (Homo sapiens). The assay is described as follows: Inhibition of Mcl-1/Bak interaction in human SMMC7721 cells expressing high level of Mcl-1 at 10 uM after 3 hrs by Western blotting. The note with it: SMMC-7721. The assay is classed as cell-based.

On to `Cc1ccc(Oc2ccc3c4c(cccc24)C2=NC(=O)C(C#N)=C23)cc1`, for which, in assay [1], the inhibitory constant (Ki) stood at 1920 nM.

In [1], `N#CC1=C2C(=NC1=O)c1cccc3c(Sc4ccc(-c5ccccc5)cc4)ccc2c13` showed an inhibitory constant (Ki) of 842 nM.

On to `N#CC1=C2C(=NC1=O)c1cccc3c(Sc4ccccc4)ccc2c13`, for which the IC50 with SMMC-7721 [2], in the assay on MCF7, in the assay with HEK293 and with SMMC-7721 [5] was more than 50000 nM throughout. For the same compound, the outcome in [3] and in [4] was inactive.

For `CN(C)c1ccc(Sc2ccc3c4c(cccc24)C2=NC(=O)C(C#N)=C23)cc1`, the Ki in [1] was 91 nM.

Take `N#CC1=C2C(=NC1=O)c1cccc3c(N4CCSCC4)ccc2c13`: the Ki in [6] came to 58 nM; in assay [7], 319 nM; in [8], 310 nM; in assay [1] it was 62 nM. The IC50 is 170 nM in the assay with SMMC-7721 [2]; 90 nM with MCF7; more than 100000 nM in the assay on HEK293; 190 nM in the assay on SMMC-7721 [5]; 35 nM in assay [10]; 285 nM in assay [11]. For the same compound, the outcome in assay [9] and in assay [12] was Active.

Consider `CC(C)c1ccc(Sc2ccc3c4c(cccc24)C2=NC(=O)C(C#N)=C23)cc1`, for which the affinity in [1], expressed as Ki, was 82 nM.

Take `COc1ccc(Oc2ccc3c4c(cccc24)C2=NC(=O)C(C#N)=C23)cc1`: the affinity in assay [1] corresponds to a Ki of 258 nM.

In [1], `CC(C)c1ccc(Oc2ccc3c4c(cccc24)C2=NC(=O)C(C#N)=C23)cc1` yielded a Ki of 99 nM.

In [1], `N#CC1=C2C(=NC1=O)c1cccc3c(Oc4ccc(-c5ccccc5)cc4)ccc2c13` came in with a Ki of 1280 nM.

For `CCC(C)(C)c1ccc(Sc2ccc3c4c(cccc24)C2=NC(=O)C(C#N)=C23)cc1`, the IC50 with SMMC-7721 [2] is 11900 nM; in the assay on MCF7, 21300 nM; in the assay on HEK293, more than 50000 nM; in the assay on SMMC-7721 [5], 25600 nM; in assay [10], 585 nM; in [11] it was 342 nM. Moreover, affinity in [1] was put at a Ki of 961 nM.

In assay [1], `COc1ccc(Sc2ccc3c4c(cccc24)C2=NC(=O)C(C#N)=C23)cc1` returned an inhibition constant (Ki) of 151 nM.

Turning to `Cc1ccc(Sc2ccc3c4c(cccc24)C2=NC(=O)C(C#N)=C23)cc1`, the inhibition constant (Ki) in assay [1] stood at 1510 nM.

Turning to `CN(C)c1ccc(Oc2ccc3c4c(cccc24)C2=NC(=O)C(C#N)=C23)cc1`, the Ki in [1] came out at 122 nM.

`CCC(C)(C)c1ccc(Oc2ccc3c4c(cccc24)C2=NC(=O)C(C#N)=C23)cc1`: affinity in assay [1] was put at a Ki of 967 nM.

As for `N#CC1=C2C(=NC1=O)c1cccc3c(Sc4ccc(N)cc4)ccc2c13`, the half-inhibitory concentration (IC50) with SMMC-7721 [2] is 18 nM; in the assay on MCF7 it was 12 nM; with HEK293, more than 50000 nM; in the assay on SMMC-7721 [5] it was 16 nM; in assay [10], 5 nM; in assay [11], 302 nM. Further, in [13], the result was inactive. Further, the result in assay [3], in assay [9], in assay [4] and in assay [12] was Active.

As for `N#CC1=C2C(=NC1=O)c1cccc3c(Sc4ccc(Br)cc4)ccc2c13`, the figures for the inhibitory constant (Ki) in assay [7] and in [1] were 382 nM and 49 nM, respectively. The half-maximal inhibitory concentration (IC50) in the assay on SMMC-7721 [2] was 190 nM; in the assay on MCF7, 90 nM; in the assay on HEK293, more than 50000 nM; with SMMC-7721 [5], 180 nM. In addition, the result in [9] and in [12] was Active.
